Measured values published in USRE32098E (Research and Education Institute, Inc., priority 1978, dated 1986).
Structures can show the parent of a compound that is named as a salt. Where two headings read alike, the source gives them in different places.

What was measured:
[1] = molecular target: T1, TBG (thyroxine-binding globulin) (Homo sapiens, UniProt P05543); test: Displacement of radioactive T4 from TBG in a CPBA system; set-up: AMOUNT T4 DISPLACED FROM TBG: unit not given here
T1 construct: from tissue; host or cells: human serum, diluted 1/32
T1 sequence (P05543 21-415): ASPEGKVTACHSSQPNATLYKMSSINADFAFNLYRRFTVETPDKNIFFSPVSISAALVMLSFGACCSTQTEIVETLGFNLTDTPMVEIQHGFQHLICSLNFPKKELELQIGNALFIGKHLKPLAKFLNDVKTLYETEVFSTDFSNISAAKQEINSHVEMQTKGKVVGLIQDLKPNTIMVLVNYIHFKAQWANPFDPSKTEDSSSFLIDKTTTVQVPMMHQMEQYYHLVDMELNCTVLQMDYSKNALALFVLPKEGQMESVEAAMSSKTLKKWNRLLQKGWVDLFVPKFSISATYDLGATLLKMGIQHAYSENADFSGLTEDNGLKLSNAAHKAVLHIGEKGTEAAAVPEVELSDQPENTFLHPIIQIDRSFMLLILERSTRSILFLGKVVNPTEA

TBG [2] = molecular target: T2, TBG (Homo sapiens, UniProt P05543); test: Displacement of radioactive T3 from TBG; format: binding
T2 construct: from tissue; host or cells: serum
T2 sequence (P05543 21-415): T1 sequence (P05543 21-415)

[3] = test system: thyroxine binding prealbumin (TBPA); test: T4 binding by prealbumin
[4] = test system: proteins such as thyroxine-binding globulin (TBG), prealbumin (TBPA) and albumin; conditions: normal human serum; cited from earlier work
[5] = test system: T3-binding sites on the rabbit antiserum; test: Affinity for T3-binding sites on the rabbit antiserum
Solubility at pH of RIA = format: physicochemical
TBG [6] = test: T4 RIA standard curves in barbital buffer and in presence of T4-free serum (FIG. 2); format: binding; conditions: 25 ul T4-free serum
sheep serum TBG = test: Adequacy of the amount of ANS in T3 RIA: T3-125I bound to T3-binding antibody in presence of sheep serum and ANS versus plain buffer; conditions: 200 ug ANS
TBG [7] = molecular target: T2, TBG; test: Maximal T4-binding capacity of TBG in serum (method of Inada and Sterling); conditions: 7 euthyroid subjects with high serum TBG

With `O=C1NC(=S)NC1(c1ccccc1)c1ccccc1` [5,5 diphenyl-2 thiohydantoin] the “AMOUNT T4 DISPLACED FROM TBG” value ([1]; 100 ug blocking agent) was 6.1 and the “AMOUNT T3 DISPLACED FROM TBG” value (TBG [2]; 10 ug blocking agent) was 7.6 ng.

In the case of `O=C1NC(=O)C(c2ccccc2)(c2ccccc2)N1` [Dilantin], the “AMOUNT T4 DISPLACED FROM TBG” value ([1]; 100 ug blocking agent) is reported as 5.7.

In the case of `CN(C)CCC=C1c2ccccc2COc2ccccc21` [Doxepin HCl], the “AMOUNT T4 DISPLACED FROM TBG” value [1] is reported as 8.2 and the “AMOUNT T3 DISPLACED FROM TBG” value (TBG [2]) is reported as 10.8 ng.

In the case of `CN(C)CCCN1c2ccccc2Sc2ccc(Cl)cc21` [Chlorpromazine HCl], the “AMOUNT T4 DISPLACED FROM TBG” value [1] is reported as 5.6 and the “AMOUNT T3 DISPLACED FROM TBG” value (TBG [2]) is reported as 6.6 ng.

For `C[CH2][Hg][S]c1ccccc1C(=O)[O-].[Na+]` [Thimerosal], the “AMOUNT T4 DISPLACED FROM TBG” value [1] was 8.4 and the “AMOUNT T3 DISPLACED FROM TBG” value (TBG [2]) was 8.0 ng.

In the case of `CN1CCN(CCCN2c3ccccc3Sc3ccc(Cl)cc32)CC1` [Prochlorperazine], the “AMOUNT T4 DISPLACED FROM TBG” value [1] is reported as 7.2 and the “AMOUNT T3 DISPLACED FROM TBG” value (TBG [2]) is reported as 7.0 ng.

With `CC(=O)NCCOC(=O)C(Oc1cccc(C(F)(F)F)c1)c1ccc(Cl)cc1` (centres unmarked) [Halofenate] the “AMOUNT T4 DISPLACED FROM TBG” value ([1]; 100 ug blocking agent) was 8.4 and the “AMOUNT T3 DISPLACED FROM TBG” value (TBG [2]; 10 ug blocking agent) was 5.2 ng.

For `O=C([O-])c1ccccc1O.[Na+]` [Sodium Salicylate], the “effect on T4 binding by prealbumin” value [3] was “affected”, the “AMOUNT T4 DISPLACED FROM TBG” value [1] was 6.1 and the “AMOUNT T3 DISPLACED FROM TBG” value (TBG [2]) was 11.0 ng.

In the case of `O=S(=O)(O)c1cccc2ccccc12` [αNapthalene Sulfonic Acid], the “AMOUNT T4 DISPLACED FROM TBG” value ([1]; 100 ug blocking agent) is reported as 3.0 and the “AMOUNT T3 DISPLACED FROM TBG” value (TBG [2]; 100 ug blocking agent) is reported as 7.0 ng.

With `O=S(=O)(O)c1ccc2cc(N=Nc3ccc(Nc4ccccc4)c4ccccc34)c(S(=O)(=O)O)cc2c1` [ANNDS, 3-(4-anilino-1-napthylazo) 2,7-napthalene disulfonic acid] the “AMOUNT T4 DISPLACED FROM TBG” value ([1]; 50 ug blocking agent) was greater than 20 and the “AMOUNT T3 DISPLACED FROM TBG” value (TBG [2]; 10 ug blocking agent) was 10.4 ng.

For `N[C@@H](Cc1cc(I)c(Oc2ccc(O)c(I)c2)c(I)c1)C(=O)O` [T3, triiodothyronine], the “present as unbound (dialyzable or free) hormone” value [4] is listed as 0.3%.

With `CN1C(=O)CN=C(c2ccccc2)c2cc(Cl)ccc21` [Diazepam] the “AMOUNT T4 DISPLACED FROM TBG” value [1] was 6.3 and the “AMOUNT T3 DISPLACED FROM TBG” value (TBG [2]) was 7.0 ng.

With `O=S(=O)(O)c1cccc2cccc(Nc3ccccc3)c12` [ANS, 8-anilino-1-napthalene-sulfonic acid] the “affinity for T3-binding sites on the rabbit antiserum” value [5] was “negligible affinity”, the “effect on T4 binding by prealbumin” value [3] was “affected” and the “solubility compared with Dilantin and tetrachlorthyronine” value (Solubility at pH of RIA) was “better solubility at pH of RIA”. The “blocking of TBG in serum” value (TBG [6]) was “TBG in the serum was adequately blocked”, the “AMOUNT T4 DISPLACED FROM TBG” value [1] was 18 and the “T4 displaced from TBG” value [1] was 18 nanograms (ng). For the same molecule, the “concentration of T4 in serum up to which all T4 is displaced” value [1] was no more than 72 ug per 100 ml, the “AMOUNT T3 DISPLACED FROM TBG” value (TBG [2]) was 11.2 ng and the “T3 displaced from TBG” value (TBG [2]) was 11.2 nanograms (ng). The “concentration of T3 in serum up to which all T3 may be displaced” value (TBG [2]) was no more than 88 ug T3 per 100 ml, the “displacement of T3 bound to TBG” value (TBG [2]) was “displaces nearly all T3 bound to TBG” and the “prevention of binding of radioactive T3 to TBG” value (TBG [2]) was “prevents completely the binding of radioactive T3 to TBG”. The “neutralization of the inhibiting effect of sheep serum TBG” value (sheep serum TBG) was “almost complete neutralization” and the “radioactivity bound to antibody relative to that in plain buffer” value (sheep serum TBG; with sheep serum, no stable T3) was 95-98%.

B1: TBG: thyroxine-binding globulin, serum protein binding thyroid hormones (protein, UniProt P05543 21-415, looked up)
Thyroxine-binding globulin: T1 sequence (P05543 21-415)
In the case of B1, the “maximal T4-binding capacity of TBG (mean)” value (TBG [7]) is reported as 46.9 ug per 100 ml.
